How the values were obtained:
human SAA1 promoter = test: SAA1 promoter luciferase reporter construct in HepG2 cells; assay type: cell-based; settings: HepG2, pGL2-SAA1pt
Text: The pGL2-SAA1pt construct was generated as follows. The proximal 3.1 kb of genomic sequence upstream of the human SAA1 transcription start site plus the full 37 bases of 5′UTR was amplified by polymerase chain reaction (PCR) from human genomic DNA (Roche Biomolecular) using forward and reverse primers, HSAA1PF (5′-GAATTCACGCGTTT-[…]-3′) (SEQ ID NO:10) and HSAAPR (5′-[…]-GCTGAGCTGCGGG-3′) (SEQ ID NO:11), that incorporate Mlu1 and Nco1 restriction sites, respectively. The product was digested with Mlu1 and Nco1 and directionally cloned into a pGL2 vector which had been modified to include an Nco1 site at the start of the luciferase coding sequence and contains the human SAA2 3′UTR (Longley et al. (1999) J. Immunol. 163:4537-45).
Constructs pGL2-SAA1[0.7] and pGL2-SAA1[0.25] containing 704 and 233 bases of promoter sequence respectively, were generated from pGL2-SAA1pt by PCR using the forward primers 5′-[…]-CAGCCTTGACC-3′ (SEQ ID NO:12) and 5′-GAATTCACGCGTGGTCT-CCTGCCTG-3′ (SEQ ID NO:13) respectively, and the reverse primer HSAAPR.
Human HepG2 hepatoma cells (ATCC) were cultured in DMEM containing 10% FCS, gentamycin, sodium pyruvate and non-essential amino acids (Gibco BRL). Cells were seeded into 24 well plates 24 hours prior to transfection using FuGENE (Roche Biomolecular) as described in Jensen et al. (2000) J. Immunol. 164:5277-86. Cells transfected with SAA promoter luciferase reporter constructs and renilla control plasmid, were incubated for 16 to 20 hours before replacement of culture medium with fresh medium alone or fresh medium containing 10 ng/ml cytokines and/or dexamethasone and/or RU486 (Mifepristone). IL-1 was purchased from Peprotech. IL-6 was obtained from AstraZeneca. Dexamethasone and RU486 were obtained from Sigma.
(§1) Cells were harvested at various times post-treatment, washed in PBS and resuspended in Passive Lysis Buffer (Promega, Madison, Wis.). […] Each treatment was carried out in triplicate and the mean ratio of luciferase to renilla activity and standard deviations were calculated. […]

human SAA2 promoter = test: SAA2 promoter luciferase reporter construct in HepG2 cells; assay type: cell-based; settings: HepG2, pGL2-SAA2pt, cytokines 10 ng/ml
Text: The pGL2-SAA2pt construct, which contains 1.2 kb of the human SAA2 promoter upstream of a luciferase reporter was generated as follows. A 1196 bp of the promoter region and 22 bp of the first exon of the human acute phase SAA2 gene was amplified by PCR with the introduction of MluI and XhoI restriction sites at the 5′ and 3′ ends respectively (5′ oligonucleotide: 5′ […]-TACTTCCT-′3′ (SEQ ID NO: 8); 3′ oligonucleotide: 5′-[…]-[…]-3′ (SEQ ID NO:9). The PCR product was subsequently cloned into the multiple-cloning site of the pGL2-Basic vector (Promega, Madison, Wis., USA) which is located upstream of a luciferase reporter gene.
Constructs pGL2-SAA2[0.7] and pGL2-SAA2[0.25] containing 700 and 239 bases of promoter sequence respectively, were generated from pGL2-SAA2pt by PCR using the forward primers 5′-[…]-3′ (SEQ ID NO:14) and 5′-[…]-3′ (SEQ ID NO:15) respectively, and the reverse primer HSAAPR.
Human HepG2 hepatoma cells (ATCC) were cultured in DMEM containing 10% FCS, gentamycin, sodium pyruvate and non-essential amino acids (Gibco BRL). […]
as §1

CC#C[C@]1(O)CC[C@H]2[C@@H]3CCC4=CC(=O)CCC4=C3[C@@H](c3ccc(N(C)C)cc3)C[C@@]21C [RU486, Mifepristone]
effect on cytokine driven SAA1 promoter transcriptional activity (human SAA1 promoter; 10 nM RU486 alone with IL-1 plus IL-6, 4 h): no measurable effect | block of dexamethasone enhancement of cytokine induction of the SAA1 promoter (human SAA1 promoter; 10 nM RU486 with 100 nM dexamethasone and IL-1 plus IL-6, 4 h): completely blocked

C[C@@H]1C[C@H]2[C@@H]3CCC4=CC(=O)C=C[C@]4(C)[C@@]3(F)[C@@H](O)C[C@]2(C)[C@@]1(O)C(=O)CO [dexamethasone]
effect on the SAA1 promoter (human SAA1 promoter; dexamethasone alone (50 nM), 3, 6, 9, 24 h): no effect

IL-6: cytokine, obtained from AstraZeneca
kinetic profile of cytokine driven SAA2 promoter readout (human SAA2 promoter; 3, 6, 9, 24 h): highest at 3 hours and decreased through 24 hours | induction of the SAA2 promoter (human SAA2 promoter; 3-24 h): moderately induced
